This note sets out measurements from patent publication US11198695B2, “Fused ring derivative having MGAT-2 inhibitory activity” (Shionogi & Co., Ltd., priority 2017, dated 2021).

≈ marks a conversion by molar mass, not a printed value.

Data set [1] can be described thus: Metabolism stability test. Format: in vitro ADME. To be noted: human liver microsomes, 30 minutes, 37° C., NADPH, 0.5 μmol/L of test compound. The protocol:
Using commercially available pooled human hepatic microsomes, the compound of the present invention was reacted for a constant time, a remaining rate was calculated by comparing a reacted sample and an unreacted sample, thereby, a degree of metabolism of the compound of the present invention in liver was assessed.
A reaction was performed (oxidative reaction) at 37° C. for 0 minute or 30 minutes in the presence of 1 mmol/L NADPH in 0.2 mL of a buffer (50 mmol/L Tris-HCl pH 7.4, 150 mmol/L potassium chloride, 10 mmol/L magnesium chloride) containing 0.5 mg protein/mL of human liver microsomes. After the reaction, 50 μL of the reaction solution was added to 100 μL of a methanol/acetonitrile=1/1 (v/v) solution, mixed and centrifuged at 3000 rpm for 15 minutes. The compound of the present invention in the supernatant was quantified by LC/MS/MS, and a remaining amount of the compound of the present invention after the reaction was calculated, letting a compound amount at 0 minute reaction time to be 100%. (Result) Remaining rate was shown at 0.5 μmol/L of test compound.
For orientation: Liver microsomes are a subcellular fraction often used to study metabolism.

Data set [2] can be described thus: Solubility test (1% DMSO addition, pH 6.8 artificial intestinal juice). The following applies: pH 6.8 artificial intestinal juice with 1% DMSO, kinetic from dmso stock, 16 hours at 25° C. Format: physicochemical. The protocol:
The solubility of the compound of the present invention was determined under 1% DMSO addition conditions. 10 mmol/L solution of the compound was prepared with DMSO, and 6 μL of the solution of the compound of the present invention was added to 594 μL of pH 6.8 artificial intestinal juice (118 mL of 0.2 mol/L NaOH test solution and water were added to 250 mL of 0.2 mol/L potassium dihydrogen phosphate test solution to reach 1000 mL). The mixture was left standing for 16 hours at 25° C., and the mixture was vacuum-filtered. The filtrate was two-fold diluted with methanol/water=1/1 (V/V), and the compound concentration in the filtrate was measured with HPLC or LC/MS/MS by the absolute calibration method.

The next data set concerns the target hERG channel (IKr) (Homo sapiens (Human), UniProt Q12809). Kind of data set: hERG test. The class given is cell-based. The following applies: pH 7.4, CHO cells expressing hERG channel, 10 μmol/L of test compound, read-out: % inhibition of tail peak current (IKr). An excerpt:
For the purpose of assessing risk of an electrocardiogram QT interval prolongation of the compound of the present invention, effects of the compound of the present invention on delayed rectifier K^+ current (IKr), which plays an important role in the ventricular repolarization process, was studied using CHO cells expressing human ether-a-go-go related gene (hERG) channel.
After a cell was retained at a membrane potential of −80 mV by whole cell patch clamp method using an automated patch clamp system (QPatch; Sophion BIoscience A/S), IKr induced by application of a leak potential of −50 mV followed by depolarization pulse stimulation at +20 mV for 2 seconds and, further, repolarization pulse stimulation at −50 mV for 2 seconds, was recorded. […] From the recording IKr, an absolute value of the tail peak current was measured based on the current value at the resting membrane potential using analysis software (Falster Patch; Sophion Bioscience A/S). Further, the % inhibition of tail peak current for the compound of the present invention relative to the tail peak current after application of the vehicle is calculated to assess influence of the compound of the present invention on IKr. (Result) % inhibition was shown at 10 μmol/L of test compound.
In general terms: hERG is a cardiac potassium channel; its block is linked to QT prolongation.

A short description of another data set: Powder solubility test. To be noted: pH 6.8, aqueous buffer, thermodynamic from solid, JP-2 solution, 37° C. The class given is physicochemical. The protocol: Appropriate quantity of the compound of the present invention was put in suitable containers. 200 μL of JP-1 solution (water was added to 2.0 g of sodium chloride and 7.0 mL of hydrochloric acid to reach 1000 mL), 200 μL of JP-2 solution (500 mL of water was added to 500 mL of phosphate buffer (pH 6.8)) or 20 mmol/L sodium taurocholate (TCA)/JP-2 solution (JP-2 solution was added to 1.08 g of TCA to reach 100 mL) was independently added to each container. When total amount was dissolved after adding the test reagent, the compound of the present invention was added appropriately. After sealing and shaking at 37° C. for 1 hour, solution is filtrated and 100 μL of methanol is added to 100 μL of each filtrate to dilute two-fold. The dilution rate is changed as necessary. After checking that there was no bubble and deposit, the container was sealed and shaken. The compound of the present invention was measured using HPLC by absolute calibration curve method.

Data set [3] is described as follows: BA test (oral absorption). Format: in vivo. The following applies: plasma; oral vs intravenous administration, mice or SD rats. On the procedure:
Materials and Methods for Experiments to Evaluate Oral Absorption
(1) Animals: the mice or SD rats were used.
(2) Breeding conditions: the mice or SD rats were allowed to freely take solid food and sterilized tap water.
(3) Setting of dosage and grouping: Oral administration and intravenous administration were performed with a predetermined dosage. Grouping was set as below. (dosage changed per compound)
Oral administration: 1 to 30 mg/kg (n=2 to 3)
Intravenous administration: 0.5 to 10 mg/kg (n=2 to 3)
(4) Preparation of administration solution: Oral administration was performed in the form of a suspension or a solution. Intravenous administration was performed after solubilization.
(5) Routes of administration: Oral administration was performed mandatory into the stomach by oral sonde. […]
(6) Evaluation items: blood was collected over time, and the plasma concentration of the compound of the present invention was measured by LC/MS/MS.
(7) Statistical analysis: regarding the transition of the plasma concentration of the compound of the present invention, the area under the plasma concentration-time curve (AUC) was calculated by non-linear least squares program WinNonlin (registered trademark), and the bioavailability (BA) of the compound of the present invention was calculated from the AUCs of the oral administration group and intravenous administration group.

The target in a further data set is recombinant human MGAT2 (Homo sapiens (Human), UniProt Q3SYC2). Kind of data set: Measurement of human MGAT2 inhibitory activity. The class given is biochemical. The following applies: read-out: IC50 (concentration exhibiting 50% enzyme inhibition), Table 53. An outline of the steps: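 RapidFire ESI-MS read-out of the diolein/diolein-d5 peak ratio gave % inhibition, with no-enzyme and full-enzyme wells as 100% and 0%. Reactions ran 1 h at room temperature at pH 7.4 (phosphate, 2 mmol/L DTT), using Flag-tagged human MGAT2 membranes from Sf9 cells and a substrate solution of 30 μmol/L 2-oleoylglycerol and 10 μmol/L oleoyl-CoA.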
Sequence of recombinant human MGAT2 (Q3SYC2 whole entry): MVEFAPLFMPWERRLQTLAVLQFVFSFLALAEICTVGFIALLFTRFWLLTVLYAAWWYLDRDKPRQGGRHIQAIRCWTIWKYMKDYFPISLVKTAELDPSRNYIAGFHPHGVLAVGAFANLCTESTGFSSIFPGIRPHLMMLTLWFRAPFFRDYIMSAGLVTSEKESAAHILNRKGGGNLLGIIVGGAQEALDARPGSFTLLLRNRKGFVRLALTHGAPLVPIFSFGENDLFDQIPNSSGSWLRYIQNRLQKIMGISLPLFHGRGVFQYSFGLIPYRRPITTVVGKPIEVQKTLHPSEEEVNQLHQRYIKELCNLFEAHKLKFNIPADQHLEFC

Sequence of hERG channel (IKr) (Q12809 whole entry): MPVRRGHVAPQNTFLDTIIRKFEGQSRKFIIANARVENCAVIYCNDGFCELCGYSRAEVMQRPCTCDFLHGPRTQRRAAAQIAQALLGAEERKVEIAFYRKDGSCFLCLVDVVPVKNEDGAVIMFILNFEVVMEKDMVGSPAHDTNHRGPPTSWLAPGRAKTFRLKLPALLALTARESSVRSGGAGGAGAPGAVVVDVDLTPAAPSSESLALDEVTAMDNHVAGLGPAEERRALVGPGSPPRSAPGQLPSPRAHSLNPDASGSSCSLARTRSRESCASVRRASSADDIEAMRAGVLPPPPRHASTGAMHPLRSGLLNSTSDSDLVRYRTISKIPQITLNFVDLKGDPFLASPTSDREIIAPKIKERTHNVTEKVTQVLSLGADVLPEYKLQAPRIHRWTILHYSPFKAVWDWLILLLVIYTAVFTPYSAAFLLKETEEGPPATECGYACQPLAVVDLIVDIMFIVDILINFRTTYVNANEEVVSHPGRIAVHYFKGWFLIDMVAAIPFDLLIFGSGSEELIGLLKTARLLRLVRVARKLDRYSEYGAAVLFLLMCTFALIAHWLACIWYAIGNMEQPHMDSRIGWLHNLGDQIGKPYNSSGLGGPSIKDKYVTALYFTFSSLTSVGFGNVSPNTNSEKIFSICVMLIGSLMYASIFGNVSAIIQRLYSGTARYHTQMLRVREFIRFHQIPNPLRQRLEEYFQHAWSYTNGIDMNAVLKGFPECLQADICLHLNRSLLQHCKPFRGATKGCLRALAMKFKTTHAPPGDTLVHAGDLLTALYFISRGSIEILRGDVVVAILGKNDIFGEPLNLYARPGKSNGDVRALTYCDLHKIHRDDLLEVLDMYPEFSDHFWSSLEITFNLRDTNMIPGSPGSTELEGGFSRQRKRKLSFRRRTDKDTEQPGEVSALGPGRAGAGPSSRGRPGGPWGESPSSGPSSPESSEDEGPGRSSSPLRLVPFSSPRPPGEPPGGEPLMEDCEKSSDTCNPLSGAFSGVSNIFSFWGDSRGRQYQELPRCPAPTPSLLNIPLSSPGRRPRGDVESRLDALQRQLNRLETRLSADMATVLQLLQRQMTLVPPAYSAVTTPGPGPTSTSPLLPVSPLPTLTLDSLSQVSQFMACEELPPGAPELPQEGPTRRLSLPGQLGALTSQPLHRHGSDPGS

The solubility is how much of the substance goes into solution per volume. The low end stands for little dissolved substance, the high end for much dissolved substance. As a reminder, the inhibition is the change of the read-out against control, counted positive when it falls. `CS(=O)(=O)CC(=O)Nc1c2c(nn1CCCOC(F)(F)F)C[C@]1(CCc3cc(OCC(F)(F)F)ccc31)NC2=O` [Compound I-253]: the “Remaining rate (%)” value in data set [1] turned out to be 76.8%. The compound also returned a solubility at 16 h in data set [2] of more than 50 µM. Also, the inhibition at 10 min, 10 μmol/L at hERG channel (IKr) was determined as 6.9%.
One may read the bioavailability as the share of a dose that reaches the circulation, judged against a reference dose that is usually intravenous. Read a high bioavailability as much systemic uptake. In “Powder solubility test”, `Cc1ccc(-n2nc3c(c2NC(=O)CS(C)(=O)=O)C(=O)N[C@](C)(c2ccc(OCC(F)(F)F)cc2F)C3)nc1` [II-94] registered a solubility at 1 h of 3.4 µM (≈ 1.94 µg/mL). Further, in data set [1], the “Remaining rate (%)” value amounted to 98.4%. In addition, the solubility at 16 h in data set [2] is more than 50 µM. Moreover, in data set [3], the bioavailability was 73%. The IC50 on recombinant human MGAT2 was 3.81 nM.
